According to patent publication US9334246B2, “Substituted triazines for malaria treatment and chemoprophylaxis” (The United States of America, as represented by the …, priority 2013, dated 2016):
In brackets after ≈: the same amount, converted by molar mass.

Experiments:
[1] = biological target: hERG potassium ion channel (Homo sapiens, UniProt Q12809); assay: hERG patch clamp assay (% inhibition at 10 μM); details: % inhibition at 10 μM, patch clamp
P. falciparum D6 = assay: Malaria SYBR Green Fluorescence Assay, D6 strain; format: cell-based, Plasmodium falciparum; details: for IC50: Plasmodium falciparum; for IC50 / D6: SYBR Green Assay
P. falciparum W2 = assay: Malaria SYBR Green Fluorescence Assay, W2 strain; format: cell-based, Plasmodium falciparum; details: for IC50: Plasmodium falciparum; for IC50 / W2: SYBR Green Assay
P. falciparum C235 = assay: Malaria SYBR Green Fluorescence Assay, C235 strain; format: cell-based, Plasmodium falciparum; details: for IC50: Plasmodium falciparum; for IC50 / C235: SYBR Green Assay

Chain of hERG potassium ion channel (Q12809 whole entry): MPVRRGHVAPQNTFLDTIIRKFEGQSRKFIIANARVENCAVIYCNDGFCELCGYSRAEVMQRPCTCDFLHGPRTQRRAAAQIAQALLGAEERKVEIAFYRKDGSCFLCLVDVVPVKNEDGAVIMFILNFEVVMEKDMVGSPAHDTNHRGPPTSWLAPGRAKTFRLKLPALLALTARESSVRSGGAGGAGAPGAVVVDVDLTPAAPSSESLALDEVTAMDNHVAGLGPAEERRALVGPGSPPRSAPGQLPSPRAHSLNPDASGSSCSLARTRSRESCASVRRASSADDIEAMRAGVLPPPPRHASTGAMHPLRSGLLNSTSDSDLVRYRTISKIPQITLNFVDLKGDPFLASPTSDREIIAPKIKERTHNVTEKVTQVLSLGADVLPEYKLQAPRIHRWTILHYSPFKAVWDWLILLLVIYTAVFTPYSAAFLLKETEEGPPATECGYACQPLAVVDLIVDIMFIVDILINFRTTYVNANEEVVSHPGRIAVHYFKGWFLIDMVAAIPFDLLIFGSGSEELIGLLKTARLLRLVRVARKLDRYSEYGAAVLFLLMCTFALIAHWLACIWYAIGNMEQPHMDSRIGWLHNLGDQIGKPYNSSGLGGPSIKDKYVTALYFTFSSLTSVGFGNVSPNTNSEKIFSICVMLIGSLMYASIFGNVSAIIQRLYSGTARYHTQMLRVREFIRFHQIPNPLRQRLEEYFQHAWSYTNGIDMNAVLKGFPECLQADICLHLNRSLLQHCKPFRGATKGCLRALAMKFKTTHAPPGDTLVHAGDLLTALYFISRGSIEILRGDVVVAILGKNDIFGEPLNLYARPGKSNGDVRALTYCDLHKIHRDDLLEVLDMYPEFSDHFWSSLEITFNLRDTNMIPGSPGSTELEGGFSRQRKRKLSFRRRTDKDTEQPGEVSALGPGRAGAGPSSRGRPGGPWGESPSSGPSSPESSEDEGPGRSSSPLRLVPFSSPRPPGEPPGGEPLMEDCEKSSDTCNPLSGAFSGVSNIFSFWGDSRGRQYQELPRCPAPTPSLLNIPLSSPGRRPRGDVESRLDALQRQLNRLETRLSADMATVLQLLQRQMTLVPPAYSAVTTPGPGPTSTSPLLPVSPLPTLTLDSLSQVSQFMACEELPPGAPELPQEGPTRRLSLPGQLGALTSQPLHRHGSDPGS

Compound | D6 (P. falciparum D6) [ng/mL] | W2 (P. falciparum W2) [ng/mL] | C235 (P. falciparum C235) [ng/mL] | further results
CN(C)C1CCN(c2nc(-c3ccc(Cl)c(Cl)c3)nc(C(Cl)(Cl)Cl)n2)C1 (centres unmarked) [Cmpd 20] | – | – | – | hERG [1]: 50%
CN1CCN(c2nc(-c3ccc(Cl)c(Cl)c3)nc(C(Cl)(Cl)Cl)n2)CC1 [Cmpd 22] | – | – | – | hERG [1]: 33%
NC1CCN(c2nc(-c3ccc(F)cc3)nc(C(Cl)(Cl)Cl)n2)CC1 [Example 2, 1-(4-(4-fluorophenyl)-6-(trichloromethyl)-1,3,5-triazin-2-yl)piperidin-4-amine] | – | – | – | IC50 (P. falciparum D6): 0.137 µg/mL (≈ 0.351 µM); IC50 (P. falciparum W2): 0.078 µg/mL (≈ 0.2 µM); IC50 (P. falciparum C235): 0.15 µg/mL (≈ 0.384 µM)
CC(=O)N1CCN(c2nc(-c3ccc(Cl)c(Cl)c3)nc(C(Cl)(Cl)Cl)n2)CC1 [Example 3, 1-(4-(4-(3,4-dichlorophenyl)-6-(trichloromethyl)-1,3,5-triazin-2-yl)piperazin-1-yl)ethan-1-one] | – | – | – | IC50 (P. falciparum D6): 0.687 µg/mL (≈ 1.46 µM); IC50 (P. falciparum W2): 0.198 µg/mL (≈ 0.422 µM); IC50 (P. falciparum C235): 0.535 µg/mL (≈ 1.14 µM)
CC1═CC═C(C═C1)C1═NC(NCC2(N)CCCCC2)═NC(═N1)C(Cl)(Cl)Cl [Compound 660] | 8 | 9 | 17 | –
CC1═CC═C(C═C1)C1═NC(═NC(═N1)C(Cl)(Cl)Cl)N1CCC(N)CC1 [Compound 623] | – | – | – | D6 (SYBR Green Assay IC50) (P. falciparum D6): 0.058 µg/mL; W2 (SYBR Green Assay IC50) (P. falciparum W2): 0.021 µg/mL; C235 (SYBR Green Assay IC50) (P. falciparum C235): 0.032 µg/mL
CC(C)(C)c1ccc(cc1)c2nc(NCC(C)(C)CN3CCCCCC3)nc(n2)C(Cl)(Cl)Cl [Compound 737] | 241.3 | 101.3 | 244.2 | –
CC(C)(C)c1ccc(cc1)c2nc(NCc3cccc(CN4CCCC4)c3)nc(n2)C(Cl)(Cl)Cl [Compound 735] | 207.4 | 60.65 | 257.5 | –
CC(C)CN1CCC(CC1)NC1═NC(═NC(═N1)C1═CC(═CC═C1)C(F)(F)F)C(Cl)(Cl)Cl [Compound 700] | 513 | 368 | 567 | –
CC(C)CN1CCC(CC1)NC1═NC(═NC(═N1)C1═CC═C(C═C1)C1═CC═CC═C1)C(Cl)(Cl)Cl [Compound 699] | 564 | 430 | 746 | –
CC(C)CN1CCC(CC1)NC1═NC(═NC(═N1)C1═CC═CC═C1)C(Cl)(Cl)Cl [Compound 704] | 867 | 223 | 525 | –
CC(C)CN1CCC(CC1)NC1═NC(═NC(═N1)C(Cl)(Cl)Cl)C1═C(C═CC═C1)[N+]([O−])═O [Compound 684] | 225 | 66 | 155 | –
CC(C)CN1CCC(CC1)NC1═NC(═NC(═N1)C(Cl)(Cl)Cl)C1═CC═C(Cl)C(Cl)═C1 [Compound 692] | 32 | 24 | 43 | –
CCN1CCCC(C1)NC1═NC(NC2═CC═C(OC(F)(F)F)C═C2)═NC(═N1)C(Cl)(Cl)Cl [Compound 655] | 19 | 11 | 28 | –
CN1CCCN(CC1)C1═NC(NC2═CC═C(OC(F)(F)F)C═C2)═NC(═N1)C(Cl)(Cl)Cl [Compound 658] | 701 | 625 | 875 | –
CN1CCN(CC1)c2ccc(Nc3nc(nc(n3)C(Cl)(Cl)Cl)C(Cl)(Cl)Cl)cc2 [Compound 731] | 229 | 165 | 263 | –
CN(C)CCCNc1nc(Nc2ccc(Cl)cc2)nc(n1)C(Cl)(Cl)Cl [Compound 636] | – | – | – | D6 (SYBR Green Assay IC50) (P. falciparum D6): 0.016 µg/mL; W2 (SYBR Green Assay IC50) (P. falciparum W2): 0.018 µg/mL; C235 (SYBR Green Assay IC50) (P. falciparum C235): 0.04 µg/mL
COC1═C2C═CC═CC2═C(C═C1)C1═NC(NC2CCN(CC(C)C)CC2)═NC(═N1)C(Cl)(Cl)Cl [Compound 703] | 324 | 237 | 338 | –
COC1═C(OC)C═C(C═C1)C1═NC(NC2CCN(CC(C)C)CC2)═NC(═N1)C(Cl)(Cl)Cl [Compound 702] | 435 | 179 | 480 | –
COC1═C(OC)C═C(C═C1)C1═NC(NCC2(N)CCCCC2)═NC(═N1)C(Cl)(Cl)Cl [Compound 669] | 12 | 10 | 23 | –

Compound | D6 (P. falciparum D6) [ng/mL] | W2 (P. falciparum W2) [ng/mL] | C235 (P. falciparum C235) [ng/mL] | further results
COC1═CC(═CC═C1)C1═NC(═NC(═N1)C(Cl)(Cl)Cl)N1CCC(N)CC1 [Compound 629] | – | – | – | D6 (SYBR Green Assay IC50) (P. falciparum D6): 0.021 µg/mL; W2 (SYBR Green Assay IC50) (P. falciparum W2): 0.015 µg/mL; C235 (SYBR Green Assay IC50) (P. falciparum C235): 0.019 µg/mL
CS(═O)(═O)C1═CC═C(C═C1)C1═NC(NCC2(N)CCCCC2)═NC(═N1)C(Cl)(Cl)Cl [Compound 665] | 76 | 76 | 147 | –
CS(═O)(═O)c1ccc(cc1)c2nc(Nc3ccc(cc3)n4cccn4)nc(n2)C(Cl)(Cl)Cl [Compound 689] | 94 | 58 | 171 | –
CS(═O)(═O)c1ccc(cc1)c2nc(Nc3cccnc3)nc(n2)C(Cl)(Cl)Cl [Compound 654] | 198 | 185 | 271 | –
CSC1═CC═C(C═C1)C1═NC(═NC(NC2CCN(CC(C)C)CC2)═N1)C(Cl)(Cl)Cl [Compound 695] | 582 | 418 | 675 | –
CSC1═CC═C(C═C1)C1═NC(═NC(═N1)C(Cl)(Cl)Cl)N1CCC(N)CC1 [Compound 626] | – | – | – | D6 (SYBR Green Assay IC50) (P. falciparum D6): 0.018 µg/mL; W2 (SYBR Green Assay IC50) (P. falciparum W2): 0.007 µg/mL; C235 (SYBR Green Assay IC50) (P. falciparum C235): 0.011 µg/mL
CSc1ccc(cc1)c2nc(nc(n2)C(Cl)(Cl)Cl)N3CC4CC3CN4 [Compound 723] | 128 | 92 | 118 | –
CSc1ccc(cc1)c2nc(nc(n2)C(Cl)(Cl)Cl)N3CC4CC3CN4C(═O)OC(C)(C)C [Compound 710] | 145 | 281 | 571 | –
ClC(Cl)(Cl)c1ccc(cc1)c2nc(NCc3ccncc3)nc(n2)C(Cl)(Cl)Cl [Compound 652] | – | – | – | D6 (SYBR Green Assay IC50) (P. falciparum D6): 0.385 µg/mL; W2 (SYBR Green Assay IC50) (P. falciparum W2): 0.301 µg/mL; C235 (SYBR Green Assay IC50) (P. falciparum C235): 0.876 µg/mL
ClC(Cl)(Cl)c1nc(Nc2ccc(cc2)n3cccn3)nc(n1)C(Cl)(Cl)Cl [Compound 732] | 386 | 160 | 584 | –
Clc1ccc(cc1)c2nc(nc(n2)C(Cl)(Cl)Cl)N3CC4CC3CN4 [Compound 717] | 259 | 163 | 264 | –
Clc1ccc(cc1Cl)c2nc(nc(n2)C(Cl)(Cl)Cl)N3CC4CC3CN4 [Compound 716] | 540.4 | 335.2 | 439.4 | –
FC(F)(F)OC1═CC═C(NC2═NC(═NC(NCCCN3CCCC3)═N2)C(Cl)(Cl)Cl)C═C1 [Compound 657] | 535 | 390 | 731 | –
FC(F)(F)OC1═CC═C(NC2═NC(═NC(═N2)C(Cl)(Cl)Cl)N2CC3CC2CN3)C═C1 [Compound 725] | 64 | 53 | 93 | –
NC1(CNC2═NC(═NC(═N2)C2═CC(Cl)═CC(Cl)═C2)C(Cl)(Cl)Cl)CC1 [Compound 683] | 727 | 503 | 795 | –
NC1(CNC2═NC(═NC(═N2)C2═CC(Cl)═CC═C2)C(Cl)(Cl)Cl)CC1 [Compound 680] | 100 | 35 | 98 | –
NC1CCN(CC1)C1═NC(═NC(═N1)C1═CC2═C(C═CC═C2)C═C1)C(Cl)(Cl)Cl [Compound 628] | – | – | – | D6 (SYBR Green Assay IC50) (P. falciparum D6): 0.042 µg/mL; W2 (SYBR Green Assay IC50) (P. falciparum W2): 0.017 µg/mL; C235 (SYBR Green Assay IC50) (P. falciparum C235): 0.02 µg/mL
NC1CCN(CC1)C1═NC(═NC(═N1)C1═CC═C(C═C1)C1═CC═CC═C1)C(Cl)(Cl)Cl [Compound 634] | – | – | – | D6 (SYBR Green Assay IC50) (P. falciparum D6): 0.145 µg/mL; W2 (SYBR Green Assay IC50) (P. falciparum W2): 0.062 µg/mL; C235 (SYBR Green Assay IC50) (P. falciparum C235): 0.088 µg/mL
NC1CCN(CC1)C1═NC(═NC(═N1)C(Cl)(Cl)Cl)C1═CC(Cl)═CC(Cl)═C1 [Compound 631] | – | – | – | D6 (SYBR Green Assay IC50) (P. falciparum D6): 0.291 µg/mL; W2 (SYBR Green Assay IC50) (P. falciparum W2): 0.153 µg/mL; C235 (SYBR Green Assay IC50) (P. falciparum C235): 0.219 µg/mL
NC1CCN(CC1)C1═NC(═NC(═N1)C(Cl)(Cl)Cl)C1═CC═C(Cl)C(Cl)═C1 [Compound 622] | – | – | – | D6 (SYBR Green Assay IC50) (P. falciparum D6): 0.074 µg/mL; W2 (SYBR Green Assay IC50) (P. falciparum W2): 0.036 µg/mL; C235 (SYBR Green Assay IC50) (P. falciparum C235): 0.059 µg/mL
